According to US7256206B2, “Bicyclic compounds and compositions” (IRM LLC, priority 2003, dated 2007):

Tests used:
[1] = molecular target: T1, human EDG-1 (Homo sapiens, UniProt P21453); assay: EDG-1 (S1P1) GTP [γ-35S] binding assay (SPA); assay type: biochemical; conditions: for EC50: GTP [γ-35S] binding, CHO membranes
T1 construct: c-myc (N); expressed in transfected cells; membrane protein suspensions
Experimental: (§1) A. In vitro: a Scintillation Proximity Assay (SPA) for Measuring GTP [γ-^35S] Binding to Membranes Prepared from CHO Cells Expressing Human EDG/S1P Receptors
EDG-1 (S1P1) GTP [γ-^35S] binding assay: Membrane protein suspensions are prepared from CHO cell clones stably expressing a human EDG-1 N-terminal c-myc tag. Solutions of test compounds ranging from 10 mM to 0.01 mM are prepared in DMSO/50 mM HCl and then diluted into assay buffer (20 mM HEPES, pH7.4, 100 mM NaCl, 10 mM MgCl2, 0.1% fat free BSA). Assay buffer containing […] is mixed with wheat germ agglutinin-coated SPA-beads (1 mg/well) followed by the addition of human EDG-1 membrane protein suspension (10 μg/well) and test compound. The bead/membrane/compound assay components are then mixed for 10–15 minutes on a shaker at room temperature. GTP [γ-^35S] (200 pM) and bead/membrane/compound assay mixture are added to individual wells of a 96 well Optiplate™ (final volume 225 μl/well), sealed and incubated at room temperature for 110 to 120 minutes under constant shaking. After centrifugation (2000 rpm, 10 minutes) luminescence is measured with a TopCount™ instrument.
(§2) EC50 values are obtained by fitting the GTP [γ-^35S] binding curves (raw data) with the dose response curve-fitting tool of ORIGIN V. 6.1. Basal binding (no compound) and the highest stimulation of GTP [γ-^35S] binding achieved by an agonist are used as the fitting range. Seven different concentrations are used to generate a concentration response curve (using two or three data points per concentration).

[2] = molecular target: T2, EDG-3 (Homo sapiens, UniProt Q99500); assay: EDG-3 GTP [γ-35S] binding assay; assay type: biochemical; conditions: CHO membranes
T2 construct: c-myc (print says 'tagged or untagged'; not resolved for this receptor) (C); expressed in transfected cells; membranes
From the text: as §1, §2
(§3) Concentrations of EDG receptor expressing membranes range between 13–19 μg per well.

[3] = molecular target: T3, EDG-5 (Homo sapiens, UniProt O95136); assay: EDG-5 GTP [γ-35S] binding assay; assay type: biochemical; conditions: CHO membranes
T3 construct: c-myc (print says 'tagged or untagged'; not resolved for this receptor) (C); expressed in transfected cells; membranes
From the text: as §1, §2, §3

[4] = molecular target: T4, EDG-6 (Homo sapiens, UniProt O95977); assay: EDG-6 GTP [γ-35S] binding assay; assay type: biochemical; conditions: CHO membranes
T4 construct: c-myc (print says 'tagged or untagged'; not resolved for this receptor) (C); expressed in transfected cells; membranes
T4 sequence (O95977 1-384): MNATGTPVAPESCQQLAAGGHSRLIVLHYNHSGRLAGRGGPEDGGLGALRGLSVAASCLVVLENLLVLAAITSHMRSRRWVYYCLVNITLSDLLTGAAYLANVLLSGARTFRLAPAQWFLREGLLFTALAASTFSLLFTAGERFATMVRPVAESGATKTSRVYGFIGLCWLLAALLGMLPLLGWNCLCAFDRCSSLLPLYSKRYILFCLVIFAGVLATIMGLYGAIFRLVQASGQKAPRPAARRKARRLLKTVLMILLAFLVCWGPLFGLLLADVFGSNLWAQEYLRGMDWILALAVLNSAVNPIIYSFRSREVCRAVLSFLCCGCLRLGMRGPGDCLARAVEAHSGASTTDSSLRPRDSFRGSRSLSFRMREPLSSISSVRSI
From the text: as §1, §2, §3

[5] = molecular target: T5, EDG-8 (Homo sapiens, UniProt Q9H228); assay: EDG-8 GTP [γ-35S] binding assay (RH7777 membranes); assay type: biochemical
T5 construct: c-myc (print says 'tagged or untagged'; not resolved for this receptor) (C); expressed in transfected cells; membranes

[6] = test system: circulating lymphocytes; assay: Measurement of blood lymphocyte depletion; assay type: in vivo, Mice (C57bl/6 male); conditions: mice, blood collected 18 hours after administration, dose for 50% blood lymphocyte depletion; for ED50: Mus musculus, Lymphocyte, ip, 18 h
Experimental: (§4) C. In Vivo: Screening Assays for Measurement of Blood Lymphocyte Depletion and Assessment of Heart Effect
Measurement of circulating lymphocytes: Compounds are dissolved in DMSO and further diluted with deionized water. Mice (C57bl/6 male, 6–10 week-old) are administered 20 μg of compound (diluted in 200 μl water, 4% DMSO) via intra-peritoneal (IP) injection under short isoflurane anesthesia. Water (200 μl), 4% DMSO, and FTY720 (10 μg) are included as negative and positive controls, respectively.
Blood is collected from the retro-orbital sinus 18 hours after drug administration under short isoflurane anesthesia. Whole blood samples are subjected to hematology analysis. Peripheral lymphocyte counts are determined using an automated analyzer. Subpopulations of peripheral blood lymphocytes are stained by fluorochrome-conjugated specific antibodies and analyzed using a fluorescent activating cell sorter (Facscalibur). Two mice are used to assess the lymphocyte depletion activity of each compound screened. The result is an ED50, which is defined as the effective dose required displaying 50% of blood lymphocyte depletion.

[7] = Assessment of heart effect (AnonyMOUSE ECG screening); assay type: in vivo, mice (C57bl/6 male); conditions: ECG before and after compound, 90 μg IP
Experimental: as §4
Assessment of Heart Effect: The effects of compounds on cardiac function are monitored using the AnonyMOUSE ECG screening system. Electrocardiograms are recorded in conscious mice (C57bl/6 male, 6–10 week-old) before and after compound administration. ECG signals are then processed and analyzed using the e-MOUSE software. 90 μg of compound further diluted in 200 μl water, 15% DMSO are injected IP. Four mice are used to assess the heart effect of each compound.

T1 sequence (P21453 whole entry): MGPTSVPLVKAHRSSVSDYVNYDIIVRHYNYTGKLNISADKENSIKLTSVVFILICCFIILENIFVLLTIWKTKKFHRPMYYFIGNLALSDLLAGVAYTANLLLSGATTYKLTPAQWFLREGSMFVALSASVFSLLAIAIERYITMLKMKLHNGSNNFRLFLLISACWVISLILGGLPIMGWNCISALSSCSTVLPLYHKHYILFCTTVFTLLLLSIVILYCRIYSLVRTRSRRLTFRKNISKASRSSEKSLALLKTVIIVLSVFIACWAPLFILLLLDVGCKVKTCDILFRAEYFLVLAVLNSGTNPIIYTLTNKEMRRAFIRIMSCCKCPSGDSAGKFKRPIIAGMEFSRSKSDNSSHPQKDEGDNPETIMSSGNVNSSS
T3 sequence (O95136 whole entry): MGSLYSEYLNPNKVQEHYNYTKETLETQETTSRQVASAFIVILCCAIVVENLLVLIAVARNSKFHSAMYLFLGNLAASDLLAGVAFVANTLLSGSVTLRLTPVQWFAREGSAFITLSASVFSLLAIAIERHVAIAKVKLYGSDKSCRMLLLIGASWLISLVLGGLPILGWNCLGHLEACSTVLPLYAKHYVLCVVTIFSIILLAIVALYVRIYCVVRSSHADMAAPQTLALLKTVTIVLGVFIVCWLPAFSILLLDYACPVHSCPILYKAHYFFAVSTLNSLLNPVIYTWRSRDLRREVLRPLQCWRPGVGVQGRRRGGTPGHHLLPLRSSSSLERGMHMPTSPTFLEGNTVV
T2 sequence (Q99500 whole entry): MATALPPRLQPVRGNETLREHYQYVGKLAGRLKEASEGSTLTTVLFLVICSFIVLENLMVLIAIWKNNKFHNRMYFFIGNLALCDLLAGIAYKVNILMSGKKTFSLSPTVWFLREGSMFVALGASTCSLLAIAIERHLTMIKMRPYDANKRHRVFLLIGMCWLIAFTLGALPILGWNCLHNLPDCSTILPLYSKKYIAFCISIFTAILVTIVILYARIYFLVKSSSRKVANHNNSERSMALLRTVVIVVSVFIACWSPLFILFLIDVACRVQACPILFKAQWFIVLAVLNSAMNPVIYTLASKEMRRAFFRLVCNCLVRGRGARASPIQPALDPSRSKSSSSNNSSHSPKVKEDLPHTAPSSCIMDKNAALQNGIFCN
T5 sequence (Q9H228 whole entry): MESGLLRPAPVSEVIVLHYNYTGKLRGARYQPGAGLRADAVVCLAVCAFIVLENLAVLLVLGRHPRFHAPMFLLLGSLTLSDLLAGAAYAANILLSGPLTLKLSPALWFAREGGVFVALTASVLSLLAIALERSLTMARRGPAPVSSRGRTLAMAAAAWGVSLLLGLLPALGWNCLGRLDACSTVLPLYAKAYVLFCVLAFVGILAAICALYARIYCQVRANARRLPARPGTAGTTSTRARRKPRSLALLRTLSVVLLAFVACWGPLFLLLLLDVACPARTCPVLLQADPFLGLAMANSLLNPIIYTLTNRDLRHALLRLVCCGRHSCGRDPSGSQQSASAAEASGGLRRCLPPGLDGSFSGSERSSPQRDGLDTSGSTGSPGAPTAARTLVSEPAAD

Row | SMILES | selectivity for EDG-1 compared to EDG-3, EDG-5, EDG-6 and EDG-8 ([1]; GTP [γ-35S] binding assays) | EC50 [1] [nM] | EC50 [2] [µM] | EC50 [3] [µM] | EC50 [4] [nM] | EC50 [5] [µM] | ED50 [6] [mg/kg] | Heart effect in conscious mice [7] | Lymphocyte Depletion ED50 ([6]; IP)
1 | C/C(=N\OCc1ccc(-c2cccs2)cc1)c1ccc(CCC(N)(CO)COP(=O)(O)O)cc1 (stereo not drawn) [Compound 10, phosphoric acid mono-(2-amino-2-hydroxymethyl-4-{4-[1-(4-thiophen-2-yl-benzyloxy-imino)-ethyl]-phenyl}-butyl)ester] | at least 1000 fold | 1.15 | > 10 | > 10 | > 10000 | > 10 | ~0.2 | clean | 
2 | C/C(=N\OCc1ccc(-c2cccc(C(F)(F)F)c2)cc1)c1ccc(CCC(N)(CO)COP(=O)(O)O)cc1 (stereo not drawn) |  | 15.7 | 0.0035 | > 10 | 1240 | 0.0058 | < 1 | clean | 
3 | C/C(=N\OCc1ccc(-c2ccsc2)cc1)c1ccc(CCC(N)(CO)COP(=O)(O)O)cc1 (stereo not drawn) [Compound 9] |  | 0.79 | > 10 | > 10 | 4400 | > 10 | 0.08 | clean | ED50 ~0.08 mg/kg
4 | C/C(=N\OCc1ccc(-c2ccccc2)cc1)c1ccc(CCC(N)(CO)COP(=O)(O)O)cc1 (stereo not drawn) |  | 0.86 | > 10 | > 10 | 168 | > 10 | ~0.1 | clean | 
